Data taken from patent US20130136740A1, “METHODS OF TREATING CANCER” (priority 2011, published 2013).

Test: Serum phosphate in rats
Type: in vivo, Sprague Dawley rats
Details: daily dosing 50 mg/kg/day oral gavage, at 24 hour or 1 week
Protocol: FGFR1-ECD.339-Fc binds to the mitogenic FGFs with 10 to 100-fold higher affinity than to FGF-23. […] The potential biological impact of this relatively weak FGFR1-ECD.339-Fc/FGF-23 binding was investigated in rats following four weekly doses of FGFR1-ECD.339-Fc at a dose range of 10-200 mg/kg/qwk.
In the first experiment, Sprague Dawley rats (Charles River Labs; N=5/group) were dosed with vehicle, 10, 50 or 200 mg/kg/qwk of FGFR1-ECD.339-Fc for four weekly doses and plasma concentrations of FGFR1-ECD.339-Fc were determined throughout the study by an ELISA based detection method.
In the second experiment, Sprague Dawley rats (Charles River Labs; N=5/group) were administered the FGFR kinase inhibitor PD173074 (Chemdea, Ridgewood, N.J.; 50 mg/kg/day) or vehicle control by oral gavage for 7 days; or were administered FGFR1-ECD.339-Fc (200 mg/kg) or appropriate vehicle weekly by intravenous administration. Blood samples were collected at the time points indicated and serum phosphate was determined at 24 and 168 hours post-initiation of dosing (Idexx laboratories, Westbrook, Mass.).

plasma phosphate levels: significantly elevated
SMILES: CCN(CC)CCCCNc1ncc2cc(-c3cc(OC)cc(OC)c3)c(NC(=O)NC(C)(C)C)nc2n1 [PD173043, reference compound]
